Here are results for five compounds from PMC8162404, “Proteomimetic surface fragments distinguish targets by function” (Chemical Science, 2020).

Read-outs that look alike come from different tables or passages of the source.

Test [1] concerns the target Gal-1. Further details: method as in PMID 15476813. To be noted: native ligand used as competitor; cited from earlier work.
Test [2] deals with T1, RecQ-WH (Escherichia coli, UniProt P15043).
T1 construct: coding for residues 408– 523 of E. coli RecQ; made in house; host or cells: E. coli BL21(DE3)
T1 sequence (P15043 408-523): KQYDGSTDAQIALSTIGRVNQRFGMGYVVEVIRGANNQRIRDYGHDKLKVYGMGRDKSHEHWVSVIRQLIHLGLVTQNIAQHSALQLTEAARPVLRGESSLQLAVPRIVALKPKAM
In words: Pull-down assay with immobilized protein and LSM libraries. Also noted: species or system E. coli. To be noted: H14 library; 1:1 binding assumed; read-out: Surface mapping KD (apparent). An outline of the steps:
(§1)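 His-tagged protein immobilized on Co-NTA resin (64 µM) in 20 mM HEPES pH 7.4, 150 mM NaCl, equilibrated 30 min at room temperature with foldamer LSM sublibraries at equimolar total concentration. Unbound fractions quantified by HPLC-MS versus protein-free resin control; apparent KD assumes 1:1 binding.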

The target in test [3] is T2, S100B (Homo sapiens, UniProt P04271).
T2 construct: made in house; host or cells: Escherichia coli BL21(DE3)
T2 sequence (P04271 1-92): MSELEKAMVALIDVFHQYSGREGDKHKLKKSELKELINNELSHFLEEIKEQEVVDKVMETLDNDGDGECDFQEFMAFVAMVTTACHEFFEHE
Kind of test: Competition pull-down with native ligand RSK1 (689–735). The class given is binding. The conditions noted are these: H14 library; competitor peptide 200 µM; read-out: Surface mapping KD (apparent), competition.

Test [4] concerns the target T3, CaM (Bos taurus, UniProt P62157).
T3 construct: made in house; host or cells: E. coli BL21 (DE3)
In words: Pull-down assay with immobilized protein and LSM libraries. The test is classed as binding, bovine. The conditions noted are these: H14 library; 1:2 stoichiometry assumed; read-out: Surface mapping KD (apparent). The procedure, abridged: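 His-tagged protein immobilized on Co-NTA resin, equilibrated 30 min at room temperature with LSM sublibraries (64 members, […]), equimolar protein to total probe. CaM buffer: 20 mM HEPES pH 7.4, 150 mM NaCl, 5 mM CaCl2. Bound fractions from HPLC-MS loss of unbound probe versus protein-free resin control; Kd derived.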

For test [5], the target named is T4, S100A4 (Homo sapiens, UniProt P26447).
T4 construct: made in house; host or cells: Escherichia coli BL21(DE3)
T4 sequence (P26447 whole entry): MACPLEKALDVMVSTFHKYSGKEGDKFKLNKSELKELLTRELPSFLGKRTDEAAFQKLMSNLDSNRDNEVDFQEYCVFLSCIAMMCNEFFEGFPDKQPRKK
In words: Competition pull-down with native ligand NMIIA (1893–1923). The test is classed as binding. The conditions noted are these: H14 library; competitor peptide 200 µM; read-out: Surface mapping KD (apparent), competition.

The target of test [6] is T3, CaM. Kind of test: Competition pull-down with native ligand TRPV1-Ct15. To be noted: H14 library; competitor peptide 200 µM; read-out: Surface mapping KD (apparent), competition. The test is classed as binding, bovine.
Test [7] concerns the target T5, Gal-1 (Homo sapiens, UniProt P09382).
T5 construct: made in house; host or cells: E. coli BL21(DE3)
Kind of test: Competition pull-down with lactose. The test is classed as binding. The conditions noted are these: H14 library; lactose 10 mM; read-out: Surface mapping KD (apparent), competition. An outline of the steps:
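His6-tagged proteins immobilized on Co-NTA resin at 64 µM final with 64-member LSM foldamer sublibraries (1 M each, as printed) in pH 7.4 HEPES/NaCl buffers (Ca2+/TCEP per target), 30 min RT; competitor peptides 200 µM final, lactose 10 mM for Gal-1. Bound fractions from LC-MS loss vs protein-free resin; KD assuming 1:1 binding.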

In test [8] the target is T4, S100A4. In words: Pull-down assay with immobilized protein and LSM libraries. The class given is binding. To be noted: H14 library; 1:1 binding assumed; read-out: Surface mapping KD (apparent). The procedure, abridged:
(§2)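 Buffers were HEPES pH 7.4 with 150 mM NaCl, plus 1 mM TCEP and 1 mM CaCl2 (50 mM HEPES) for S100A4 and S100B, 1 mM TCEP for Gal-1, and no additive for RecQ-WH. Immobilized protein at 64 µM was equilibrated 30 min with the LSM sublibrary, and unbound probes were measured by LC-MS.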

The target of test [9] is T5, Gal-1. The description is as above. The test is classed as binding. To be noted: H14 library; 1:1 binding assumed; read-out: Surface mapping KD (apparent). An outline of the steps: as §1
The target in test [10] is T2, S100B. Described as above. The class given is binding. To be noted: H14 library; 1:1 binding assumed; read-out: Surface mapping KD (apparent). An outline of the steps: as §2
Test [11] deals with T1, RecQ-WH. In words: Competition pull-down with native ligand SSB-Ct8. The test is classed as binding, E. coli. To be noted: H14 library; competitor peptide 200 µM; read-out: Surface mapping KD (apparent), competition.
Test [12] has as its target T4, S100A4. Also noted: method as in PMID 26527685. The conditions noted are these: native ligand used as competitor; cited from earlier work.
Test [13] concerns the target T2, S100B. Also noted: method as in PMID 26527685. The conditions noted are these: native ligand used as competitor; cited from earlier work.

T5 sequence (P09382 whole entry): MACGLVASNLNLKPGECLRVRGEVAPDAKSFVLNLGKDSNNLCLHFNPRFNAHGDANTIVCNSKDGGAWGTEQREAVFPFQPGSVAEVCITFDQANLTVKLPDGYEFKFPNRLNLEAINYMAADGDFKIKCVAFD

On to `OC[C@H]1O[C@@H](O[C@H]2[C@H](O)[C@@H](O)C(O)O[C@@H]2CO)[C@H](O)[C@@H](O)[C@H]1O` (mixture of isomers) [Lactose], for which, in test [1], the Kd was 409 µM.
Take `NC(=O)[C@H]1CCCC[C@@H]1NC(=O)C[C@H](Cc1ccc(O)cc1)NC(=O)[C@H]1CCCC[C@@H]1NC(=O)[C@H]1CCCC[C@@H]1NC(=O)C[C@H](Cc1c[nH]c2ccccc12)NC(=O)[C@H]1CCCC[C@@H]1N` [H14 WY]: the Kd in test [2] is 50 µM; in [3], 104 µM; in [4], 2 µM; in test [5], 367 µM; in [6], 119 µM; in test [7], 222 µM. Moreover, the Kd came out at 35 µM in test [8], 145 µM in [9], 66 µM in test [10] and 193 µM in [11].
Take `NC(=O)[C@H]1CCCC[C@@H]1NC(=O)C[C@H](Cc1c[nH]c2ccccc12)NC(=O)[C@H]1CCCC[C@@H]1NC(=O)[C@H]1CCCC[C@@H]1NC(=O)C[C@H](Cc1ccc(O)cc1)NC(=O)[C@H]1CCCC[C@@H]1N` [H14 YW]: the Kd in test [2] turned out to be 46 µM; in test [3], 38 µM; in test [4], 2 µM; in test [5], 391 µM; in [6], 404 µM; in test [7], 112 µM. In addition, the Kd in test [8] worked out at 25 µM; in [9], 115 µM; in test [10], 42 µM; in [11], 164 µM.
With “NMIIA (1893–1923): peptide motif of non-muscle myosin IIA, native ligand competitor for S100A4”, in [12], the Kd was 0.007 ± 0.001 µM.
Turning to “RSK1 (689–735): peptide motif of ribosomal S6 kinase 1, native ligand competitor for S100B (QDLQLVKGAMAATYSALNSSKPTPQLKPIESSILAQRRVRKLPSTTL; UniProt Q15418 689-735, looked up, fragment)”, the Kd in test [13] is 1.8 µM.
